For test [1], the target named is Cyclin-dependent kinase 1/cyclin B (Homo sapiens, UniProt P06493). The test is described as follows: Inhibitory concentration was determined by measuring phosphorylation of H1 histone using active human Cell division cycle 2-cyclin B complex. In kind it is protein-complex assay.
The nature of test [2]: Inhibition of Calcium/calmodulin-dependent protein kinase at 2.4 uM (No inhibition).
The nature of test [3]: Inhibition of Calcium/calmodulin-dependent protein kinase at 24 uM (No inhibition).
Test [4] in a line: Inhibition of Calcium/calmodulin-dependent protein kinase at 240 uM (No inhibition).
The target of test [5] is T1, Cyclin-dependent kinase 1/cyclin B (Homo sapiens) (UniProt P06493+P14635+Q8WWL7+O95067). The test is described as follows: Inhibition of Cell division cycle 2-cyclin B at 2.4 uM (No inhibition). In kind it is protein-complex assay.
Test [6] has as its target T1, Cyclin-dependent kinase 1/cyclin B (Homo sapiens). The test is described as follows: Inhibition of Cell division cycle 2-cyclin B at 24 uM (No inhibition). In kind it is protein-complex assay.
The target is the same in test [7]. The test is described as follows: Inhibition of Cell division cycle 2-cyclin B at 240 uM (Partial inhibition). It is filed as protein-complex assay.
Test [8] deals with T2, cAMP-dependent protein kinase (PKA) (Homo sapiens) (UniProt P22694+P17612+P22612). Briefly: Inhibition of protein kinase A at 2.4 uM (No inhibition). It is filed as protein assay.
In test [9] the target is T2, cAMP-dependent protein kinase (PKA) (Homo sapiens). Briefly: Inhibition of protein kinase A at 240 uM. It is filed as protein assay.
Test [10] has the same target. Briefly: Inhibition of protein kinase A at 24 uM (No inhibition). In kind it is protein assay.
Test [11] addresses T3, Protein kinase C (PKC) (Homo sapiens) (UniProt O94806+P41743+P17252+P05129+Q05655+P05771+Q05513+Q02156+P24723+Q15139+Q04759). The test is described as follows: Inhibition of protein kinase C at 240 uM. In kind it is protein assay.
Test [12] has as its target T3, Protein kinase C (PKC) (Homo sapiens). The test is described as follows: Inhibition of protein kinase C at 24 uM. In kind it is protein assay.
Test [13] shares this target. The test is described as follows: Inhibition of protein kinase C at 2.4 uM. In kind it is protein assay.
In test [14] the target is T2, cAMP-dependent protein kinase (PKA) (Homo sapiens). Briefly: Inhibition of protein kinase A at 240 uM (No inhibition). In kind it is protein assay.
For test [15], the target named is T1, Cyclin-dependent kinase 1/cyclin B (Homo sapiens). The test is described as follows: Inhibition of Cell division cycle 2-cyclin B at 24 uM (Partial inhibition). It is filed as protein-complex assay.
Test [16] deals with T2, cAMP-dependent protein kinase (PKA) (Homo sapiens). Briefly: Inhibition of protein kinase A at 24 uM (partial). It is filed as protein assay.
The target of test [17] is T1, Cyclin-dependent kinase 1/cyclin B (Homo sapiens). The conditions noted are these: 240 uM.
A short description of test [18]: Inhibition of Calcium/calmodulin-dependent protein kinase at 240 uM (Partial).

Molecules are shown by their SMILES. pIC50: −log10 of the molar value. Calls of active or inactive are those of the source. The rule behind the calls is not given here. Residues, ends and D or L forms follow the SMILES beside them. *: point of attachment. X3 = CN(C)CCCn1cc(C2=C(c3cn(CCOCC*)c4ccccc34)C(=O)NC2=O)c2ccccc21; X4 = O=C1NC(=O)C(c2cn(CCOCCOCCOC*)c3ccccc23)=C1c1c[nH]c2ccccc12; X1 = O=C1NC(=O)C(c2cn(CCOCCOCC*)c3ccccc23)=C1c1c[nH]c2ccccc12; X2 = O=C1NC(=O)C(c2cn(CCOCC*)c3ccccc23)=C1c1c[nH]c2ccccc12

In general, pIC50 refers to the IC50 on a negative log10 scale, so that one unit is a factor of ten. For `O=C1NC(=O)C(c2cn(CCOCCOCCOCCO)c3ccccc23)=C1c1c[nH]c2ccccc12`, in [1], the pIC50 is 4.26.

In test [1], `CNC(=O)[C@H](CCCCN)NC(=O)[C@H](CCCCN)NC(=O)[C@@H]1CCCN1C(=O)[C@H](CSCCOCCOCCOCCn1cc(C2=C(c3c[nH]c4ccccc34)C(=O)NC2=O)c2ccccc21)NC(C)=O` gave a pIC50 of 4.51.

As to `CNC(=O)[C@H](CCCCN)NC(=O)[C@H](CCCCN)NC(=O)[C@@H]1CCCN1C(=O)[C@H](CSCCOCCOCCn1cc(C2=C(c3cn(CCCN(C)C)c4ccccc34)C(=O)NC2=O)c2ccccc21)NC(C)=O`, the pIC50 in test [1] was under 3.00.

Usually inhibition stands for the share of the control response that was lost under treatment. For `O=C1NC(=O)C(c2cn(CCOCCO)c3ccccc23)=C1c1c[nH]c2ccccc12`, the inhibition result in [2], in [3], in test [4], in test [5], in test [6] and in test [8] was “inactive” throughout. Besides, the inhibition result in test [10] is “inactive”. For the same molecule, the pIC50 in test [1] is 5.40. For the same molecule, the inhibition entry in test [7] is “Weak activity”; in test [9] it was over 75%; in [11], over 75%; in test [12], over 75%; in test [13] it was over 75%.

As for `CN(C)CCCn1cc(C2=C(c3cn(CCOCCOCCO)c4ccccc34)C(=O)NC2=O)c2ccccc21`, in test [1], the pIC50 was 4.46.

Turning to `O=C1NC(=O)C(c2cn(CCOCCOCCO)c3ccccc23)=C1c1c[nH]c2ccccc12`, the pIC50 in [1] is 3.55.

In test [1], `CN(C)CCCn1cc(C2=C(c3cn(CCOCCO)c4ccccc34)C(=O)NC2=O)c2ccccc21` gave a pIC50 of 4.66.

As to `CNC(=O)[C@H](CCCCN)NC(=O)[C@H](CCCCN)NC(=O)[C@@H]1CCCN1C(=O)[C@H](CSCCOCCOCCn1cc(C2=C(c3c[nH]c4ccccc34)C(=O)NC2=O)c2ccccc21)NC(C)=O` (Ac-C(X1)PKK-NHMe), the inhibition result in test [2], in test [3], in test [4], in test [5], in test [6] and in [8] was “inactive” in each case. Besides, the inhibition entry in [14] and in [10] was “inactive” in each case. In test [1], this molecule showed a pIC50 of 5.35. The inhibition entry in [7] is “Weak activity”; in test [11] it was over 75%; in [12], over 75%; in test [13], over 75%.

Regarding `CNC(=O)[C@H](CCCCN)NC(=O)[C@H](CCCCN)NC(=O)[C@@H]1CCCN1C(=O)[C@H](CO)NC(=O)[C@H](CSCCOCCOCCn1cc(C2=C(c3c[nH]c4ccccc34)C(=O)NC2=O)c2ccccc21)NC(C)=O` (Ac-C(X1)SPKK-NHMe), the pIC50 in test [1] was 3.66.

Turning to `CNC(=O)[C@H](CCCCN)NC(=O)[C@H](CCCCN)NC(=O)[C@@H]1CCCN1C(=O)[C@H](CSCCOCCn1cc(C2=C(c3c[nH]c4ccccc34)C(=O)NC2=O)c2ccccc21)NC(C)=O` (Ac-C(X2)PKK-NHMe), in test [1], the pIC50 is 4.01.

Take `CNC(=O)[C@H](CCCCN)NC(=O)[C@H](CCCCN)NC(=O)[C@@H]1CCCN1C(=O)[C@H](CSCCOCCn1cc(C2=C(c3cn(CCCN(C)C)c4ccccc34)C(=O)NC2=O)c2ccccc21)NC(C)=O` (Ac-C(X3)PKK-NHMe): the pIC50 in [1] was under 3.00.

`CNC(=O)[C@H](CCCCN)NC(=O)[C@H](CCCCN)NC(=O)[C@@H]1CCCN1C(=O)[C@H](CO)NC(=O)[C@H](CSCOCCOCCOCCn1cc(C2=C(c3c[nH]c4ccccc34)C(=O)NC2=O)c2ccccc21)NC(C)=O` (Ac-C(X4)SPKK-NHMe) gave a pIC50 in test [1] of 3.24.

As to `CNC(=O)[C@H](CCCCN)NC(=O)[C@H](CCCCN)NC(=O)[C@@H]1CCCN1C(=O)[C@H](CS)NC(C)=O` (HELM PEPTIDE1{[ac].C.P.K.K.[CN[*:1]]}$$$$V2.0), the pIC50 in [1] is under 3.00.

Consider `CN(C)CCCn1cc(C2=C(c3c[nH]c4ccccc34)C(=O)NC2=O)c2ccccc21` [GF-109203], for which the inhibition entry in test [2], in [3], in [4], in [5] and in [8] was “inactive” each time. The same molecule showed a pIC50 in test [1] of 4.72. Moreover, the inhibition entry in [15] is “Weak activity”; in test [9], over 75%; in test [16], “Weak activity”; in [11], over 75%; in test [12], over 75%; in [13], over 75%. Besides, the inhibition in test [17] was over 75%.

As to `O=C1NC(=O)C(c2c[nH]c3ccccc23)=C1c1c[nH]c2ccccc12` [RO-316233], the inhibition entry in test [2], in test [3], in test [5] and in test [8] was “inactive” in each case. This molecule had a pIC50 in test [1] of 4.74. Further, the inhibition entry is “Weak activity” in test [15]; over 75% in test [9]; “Weak activity” in [16]; “Weak activity” in [18]; over 75% in test [17].
